Holding throughout (assay type): cell-based
The target of assay [1] is T1, KRAS G12V protein in SW900 cells (Homo sapiens, UniProt P01116, G12V).
T1 construct: endogenous in cells; host or cells: SW900
Put plainly: KRAS degradation assay (Western Blot) in SW900 cells. Conditions: 24 h. An outline of the steps: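 5×10^5 cells/well; cpd 0.03–3000 nM final, 0.25% DMSO, 24 h, 37 °C/5% CO2. RIPA lysis, 5 µg protein/lane, anti-KRAS WB, β-actin loading ref. DC50/Dmax by nonlinear fit.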
Background: In western blotting, separated proteins are transferred to a membrane and probed.

Assay [2] deals with KRAS G12V mutant human colorectal cancer cell SW620. Put plainly: 3D cell proliferation inhibition assay, SW620. The conditions noted are these: SW-620, 168 h, 3D culture, 7 days, CTG. An outline of the steps: (§1)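 Seven-day 3D growth at 37 °C in low-adsorption wells, 5×10^2 cells/well except MKN1 (1×10^3), final compound range 10000–0.026 nM in 0.2% DMSO. CTG luminescence read-out; percent inhibition set against DMSO and medium-only wells, IC50 by curve fitting.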

The subject of assay [3] is KRAS G12D mutant human metastatic pancreatic cancer cell AsPc-1. As to the kind of experiment: 3D cell proliferation inhibition assay, AsPc-1. The conditions noted are these: ASPC1, 168 h, 3D culture, 7 days, CTG. In outline:
as §1

Assay [4] relates to KRAS G12V mutant human lung squamous carcinoma cell SW900. Put plainly: 3D cell proliferation inhibition assay, SW900. Conditions: SW900, 168 h, 3D culture, 7 days, CTG.
In assay [5] the test system is KRAS G12D mutant human lung cancer cell A427. Put plainly: 3D cell proliferation inhibition assay, A427. The conditions noted are these: A-427, 168 h, 3D culture, 7 days, CTG. An outline of the steps: as §1
Assay [6] deals with KRAS G12C mutant human non-small cell lung cancer cell NCI-H358. Put plainly: 3D cell proliferation inhibition assay, NCI-H358. The conditions noted are these: NCI-H358, 168 h, 3D culture, 7 days, CTG. In outline: as §1
In assay [7] the test system is KRAS G13D mutant human colorectal cancer epithelial cell DLD-1. Put plainly: 3D cell proliferation inhibition assay, DLD-1. Conditions: DLD-1, 168 h, 3D culture, 7 days, CTG. In outline: as §1
The test system of assay [8] is KRAS WT human gastric cancer cell MKN1. As to the kind of experiment: 3D cell proliferation inhibition assay, MKN1. Conditions: MKN-1, 168 h, 3D culture, 7 days, CTG. An outline of the steps:
as §1

Assay [9] relates to KRAS G12D mutant human gastric cancer cell AGS. As to the kind of experiment: 3D cell proliferation inhibition assay, AGS. Conditions: 168 h, 3D culture, 7 days, CTG. An outline of the steps:
as §1

The target in assay [10] is T2, KRAS G12D protein in AsPc-1 cells (Homo sapiens, UniProt P01116, G12D).
T2 construct: endogenous in cells; host or cells: AsPc-1
As to the kind of experiment: KRAS degradation assay (Western Blot) in AsPc-1 cells. The conditions noted are these: for DC50: 24 h; for Dmax: ASPC1, 24 h. The text has this:
(§2) Test Example 5: KRAS G12C, KRAS G12D, KRAS G12V, KRAS G13D, and KRAS WT (Expanded) Degradation Assays
(§3) The degradation effect of the compounds on KRAS was investigated on KRAS G12C mutant human non-small cell lung cancer cell NCI-H358, KRAS G12D mutant human metastatic pancreatic cancer cell AsPc-1, KRAS G12D mutant human lung cancer cell A427, KRAS G12V mutant human colorectal cancer cell SW620, KRAS G12V mutant human lung cancer cell SW900, KRAS G13D mutant human colorectal cancer epithelial cell DLD-1, and KRAS WT human gastric cancer cell MKN-1. The specific procedures were as follows: 0.95 mL of cells were seeded into each well of a 24-well cell culture plate to achieve a cell density of 5×10^5 cells/well; and the cell plate was incubated in an incubator at 37° C. with 5% CO2 overnight. Then 50 μL of the compound solution after dilution was added to each of the wells with the corresponding cells, so that the final concentration of the compound was in a range of 0.03-3000 nM. The final concentration of DMSO was 0.25%. After the compounds were added, the cell plate was incubated in an incubator at 37° C. with 5% CO2 for 24 h. The culture medium in the 24-well cell culture plate was then removed, and the plate was washed twice with 1×PBS (KeyGEN). 120 μL of RIPA (strong) lysis buffer (Beyotime) (supplemented with 1 mM phenylmethylsulfonyl fluoride, a protease inhibitor mixture (Beyotime), and a protease phosphatase inhibitor mixture (Beyotime)) was added to lyse adherent SW900 cells at the bottom of the cell culture plate. After the plate was left to stand on ice for 30 min, the protein lysate in each well was transferred to a 1.5 mL centrifuge tube and centrifuged at 15000 g for 20 min at 4° C. The cell lysate supernatants after centrifugation were cryopreserved in a refrigerator at −80° C. for later use.
(§4) After the samples of the cell lysate supernatants that had been prepared were thawed from the refrigerator at −80° C., the total protein concentrations of the cell lysates were determined using a BCA protein quantification kit (Tiangen). The total protein concentrations of the samples were then adjusted to 0.5 μg/μL with PBS and 5×SDS-PAGE protein loading buffer (Beyotime), and the samples were incubated in a water bath at 100° C. for 15 min. The samples were then incubated in an ice bath for 5 min and centrifuged at 14000 g for 1 min at 4° C., and the supernatants were mixed well as loading samples for the Western Blot assay. The samples were loaded into wells of a 10% precast gel (KeyGEN) with a loading volume of 10 μL (total protein: 5 μg), a sufficient Tris-MOPS-SDS running buffer (Adamas) was added, and then electrophoresis was performed at a constant voltage of 120 V for 55 min. After the electrophoresis, the proteins on the gel were transferred to PVDF membranes at a constant current of 250 mA for 55 min. After the membrane transfer, the PVDF membranes were incubated in 1× Quick Block blocking buffer (Beyotime)at room temperature for 30 min. After the blocking, the PVDF membranes were separately incubated at 4° C. overnight with the KRAS antibody (Abcam) diluted in a ratio of 1:1000 and the β-actin antibody (Abcam) diluted in a ratio of 1:2000 in 5% BSA as the diluent, and then washed with 1×TBST buffer (2.4 g of Tris, 8.8 g of NaCl, 1.5 mL of Tween 20, with pH adjusted to 7.4, with the volume brought to 1 L) 3 times for 10 min/time. The membranes were incubated with a secondary antibody (Abcam) diluted in 5% BSA at room temperature for 2 h, and then washed with 1×TBST buffer 3 times for 10 min/time. Finally, the membranes were incubated with Clarity Western ECL Substrate (BIO-RAD) for 5 min for luminescence and color development, and a ChemiScope 6200 Touch chemiluminescence imaging system (Clinx) was used for color development and protein mapping. Gray value analysis of the protein maps was performed using the chemiluminescence analysis software (Clinx). […]

For assay [11], the target named is T3, KRAS G13D protein in DLD-1 cells (Homo sapiens, UniProt P01116, G13D).
T3 construct: endogenous in cells; host or cells: DLD-1
Put plainly: KRAS degradation assay (Western Blot) in DLD-1 cells. The conditions noted are these: 24 h.
Excerpt: as §2, §3, §4

Drawing on patent US20260167622A1, “PAN-KRAS DEGRADING AGENT, AND PREPARATION METHOD THEREFOR AND USE THEREOF” (LEADINGTAC PHARMACEUTICAL (SHAOXING) CO., LTD., priority 2022, published 2026), this text covers DC50, Dmax and IC50 for 5 compounds.

Molecules are shown by their SMILES. pIC50: −log10 of the molar value. Bounds are passed on as bounds.

T1 sequence (P01116 1-188 isoform P01116-2 G12V): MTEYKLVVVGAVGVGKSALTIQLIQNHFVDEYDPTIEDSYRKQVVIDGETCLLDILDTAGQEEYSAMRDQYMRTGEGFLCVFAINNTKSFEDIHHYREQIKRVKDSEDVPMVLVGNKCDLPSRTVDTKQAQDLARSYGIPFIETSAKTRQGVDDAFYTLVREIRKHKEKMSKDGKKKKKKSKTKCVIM
T2 sequence (P01116 1-188 isoform P01116-2 G12D): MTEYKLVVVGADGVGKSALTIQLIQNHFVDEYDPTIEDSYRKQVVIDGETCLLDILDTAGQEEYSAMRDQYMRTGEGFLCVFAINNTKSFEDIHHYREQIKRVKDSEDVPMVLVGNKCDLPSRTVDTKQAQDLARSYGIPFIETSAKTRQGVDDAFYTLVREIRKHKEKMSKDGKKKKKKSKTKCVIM
T3 sequence (P01116 1-188 isoform P01116-2 G13D): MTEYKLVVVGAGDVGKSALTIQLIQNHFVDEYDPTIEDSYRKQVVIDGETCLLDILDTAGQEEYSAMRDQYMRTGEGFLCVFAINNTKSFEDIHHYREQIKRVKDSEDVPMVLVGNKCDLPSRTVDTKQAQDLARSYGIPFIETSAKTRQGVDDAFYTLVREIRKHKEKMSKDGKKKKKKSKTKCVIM

Broadly, the DC50 is the concentration giving 50% degradation. A high value points to a less potent degrader. The term Dmax denotes the greatest extent of degradation seen. Read a low Dmax as a partial loss of target. One may read the pIC50 as the IC50 on a negative log10 scale, so that one unit is a factor of ten. A lower pIC50 goes with a large IC50. With `C#Cc1c(F)ccc2cc(O)cc(-c3ccc4c(N5CCC[C@@](C)(O)C5)nc(OCC5(CN6CCN(CC7CCC8(CC7)CCN(C(=O)c7ccc(Cl)c(N9CCC(=O)NC9=O)c7)CC8)CC6)CC5)nc4c3F)c12` [Example 33, (R)-1-(2-chloro-5-(9-((4-((1-(((7-(8-ethynyl-7-fluoro-3-hydroxynaphthalen-1-yl)-8-fluoro-4-(3-hydroxy-3-methylpiperidin-1-yl)quinazolin-2-yl)oxy)methyl)cyclopropyl)methyl)piperazin-1-yl)methyl)-3-azaspiro[5.5]undecane-3-carbonyl)phenyl)dihydropyrimidine-2,4(1H,3H)-dione], the DC50 in assay [1] was at most 50 nM. Further, the greatest degradation seen (Dmax) in assay [1] was 80 to 100%. In addition, the pIC50 is 8.11 in [2]; at least 7.30 in assay [3]; 7.00 to 7.30 in [4]; at least 7.30 in [5]; 7.00 to 7.30 in assay [6]; at least 7.30 in assay [7]. Besides, the pIC50 was 7.00 to 7.30 in assay [8] and at least 7.30 in [9].
Turning to `C#Cc1c(F)ccc2cc(O)cc(-c3ncc4c(N5CCCOCC5)nc(OCC5(CN6CCN(CC7CCC8(CC7)CCN(C(=O)c7ccc(C)c(N9CCC(=O)NC9=O)c7)CC8)CC6)CC5)nc4c3F)c12` [Example 36, 1-(5-(9-((4-((1-(((7-(8-ethynyl-7-fluoro-3-hydroxynaphthalen-1-yl)-8-fluoro-4-(1,4-oxazepan-4-yl)pyrido[4,3-d]pyrimidin-2-yl)oxy)methyl)cyclopropyl)methyl)piperazin-1-yl)methyl)-3-azaspiro[5.5]undecane-3-carbonyl)-2-methylphenyl)dihydropyrimidine-2,4(1H,3H)-dione], in assay [1], the DC50 is at most 50 nM. In assay [1], the Dmax was 80 to 100%. Moreover, the pIC50 in assay [2] is 8.47; in assay [3] it was at least 7.30; in assay [4] it was at least 7.30; in assay [5], 7.00 to 7.30; in assay [6], 7.00 to 7.30; in assay [7], at least 7.30. In addition, the pIC50 in assay [8] and in assay [9] was at least 7.30 each time.
In the case of `C#Cc1cccc2cc(O)cc(-c3ncc4c(N5CCCOCC5)nc(OCC5(CN6CCN(CC7CCC8(CC7)CCN(C(=O)c7ccc(OC)c(N9CCC(=O)NC9=O)c7)CC8)CC6)CC5)nc4c3F)c12` [Example 39, 1-(5-(9-((4-((1-(((7-(8-ethynyl-3-hydroxynaphthalen-1-yl)-8-fluoro-4-(1,4-oxazepan-4-yl)pyrido[4,3-d]pyrimidin-2-yl)oxy)methyl)cyclopropyl)methyl)piperazin-1-yl)methyl)-3-azaspiro[5.5]undecane-3-carbonyl)-2-methoxyphenyl)dihydropyrimidine-2,4(1H,3H)-dione], the DC50 in [1] and in [10] was at most 50 nM each time. The Dmax in [1] is 80 to 100%; in assay [10] it was 50 to 80%. For the same compound, the pIC50 in [2] is 7.45; in assay [6], 7.93; in assay [7], 7.06.
`CCc1c(F)ccc2cc(O)cc(-c3ncc4c(N5CCC[C@@](C)(O)C5)nc(OCC5(CN6CCN(CC7CCC8(CC7)CCN(C(=O)c7ccc(OC)c(N9CCC(=O)NC9=O)c7)CC8)CC6)CC5)nc4c3F)c12` [Example 42, (R)-1-(5-(9-((4-((1-(((7-(8-ethyl-7-fluoro-3-hydroxynaphthalen-1-yl)-8-fluoro-4-(3-hydroxy-3-methylpiperidin-1-yl)pyrido[4,3-d]pyrimidin-2-yl)oxy)methyl)cyclopropyl)methyl)piperazin-1-yl)methyl)-3-azaspiro[5.5]undecane-3-carbonyl)-2-methoxyphenyl)dihydropyrimidine-2,4(1H,3H)-dione]: the DC50 in assay [1] and in assay [11] was at most 50 nM in each case. Also, the Dmax in assay [1] and in [11] was 80 to 100% each time. Further, the pIC50 in assay [2] was 8.67; in [3] it was at least 7.30; in assay [4], at least 7.30; in [5], 6.30 to 7.00; in [6] it was at least 7.30; in [7], at least 7.30. For the same compound, the pIC50 in assay [8] and in assay [9] was at least 7.30 in each case.
In the case of `CCc1cccc2cc(O)cc(-c3ccc4c(N5CCC[C@@](C)(O)C5)nc(OCC5(CN6CCN(CC7CCC8(CC7)CCN(C(=O)c7ccc(C)c(N9CCC(=O)NC9=O)c7)CC8)CC6)CC5)nc4c3F)c12` [Example 49, (R)-1-(5-(9-((4-((1-(((7-(8-ethyl-3-hydroxynaphthalen-1-yl)-8-fluoro-4-(3-hydroxy-3-methylpiperidin-1-yl)quinazolin-2-yl)oxy)methyl)cyclopropyl)methyl)piperazin-1-yl)methyl)-3-azaspiro[5.5]undecane-3-carbonyl)-2-methylphenyl)dihydropyrimidine-2,4(1H,3H)-dione], the DC50 in assay [1] came out at 62.9 nM; in assay [10], 822 nM. The greatest degradation seen (Dmax) in assay [1] turned out to be 75.3%; in assay [10], 57%. Further, the negative logarithm of the IC50 (pIC50) in [2] is 7.56; in assay [4], 6.28; in assay [6] it was 7.17; in assay [7] it was 7.34; in assay [8], 7.41.
